In patent US20250270190A1, “KIT INHIBITORS” (BLUEPRINT MEDICINES CORPORATION, priority 2022, published 2025):
pIC50: −log10 of the molar value. Where a name gives a salt, the structure may show the parent alone.

Biological target: T1, c-kit autophosphorylation (Phospho c-Kit Tyr721) in HMC 1.1 (exon 11/13) cells, V654A (Homo sapiens, UniProt P10721, V560G/V654A)
T1 construct: endogenous in cells; host or cells: HMC 1.1 (exon 11/13) cells
Experiment: pKIT Meso Scale Discovery (MSD) assay, inhibition of autophosphorylation of KIT, HMC1.1_V654A
Format: cell-based
Settings: Table 1, cell line not named for Table 1, b1056 names pKIT HMC1.1_V654A, read-out: Code (IC50 for inhibition of autophosphorylation of KIT, pKIT MSD assay)
Procedure, shortened: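 HMC1.1 cells were serum-starved for 4 h in serum-free, iron-free, phenol red-free IMDM, then treated with compound in dose-response for 90 min at 37 °C. Staurosporine and DMSO served as controls. Lysates were analysed by MSD electrochemiluminescence immunoassay for phospho-c-Kit Tyr721, and % inhibition of autophosphorylation was derived.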

T1 sequence (P10721 26-976 V560G/V654A): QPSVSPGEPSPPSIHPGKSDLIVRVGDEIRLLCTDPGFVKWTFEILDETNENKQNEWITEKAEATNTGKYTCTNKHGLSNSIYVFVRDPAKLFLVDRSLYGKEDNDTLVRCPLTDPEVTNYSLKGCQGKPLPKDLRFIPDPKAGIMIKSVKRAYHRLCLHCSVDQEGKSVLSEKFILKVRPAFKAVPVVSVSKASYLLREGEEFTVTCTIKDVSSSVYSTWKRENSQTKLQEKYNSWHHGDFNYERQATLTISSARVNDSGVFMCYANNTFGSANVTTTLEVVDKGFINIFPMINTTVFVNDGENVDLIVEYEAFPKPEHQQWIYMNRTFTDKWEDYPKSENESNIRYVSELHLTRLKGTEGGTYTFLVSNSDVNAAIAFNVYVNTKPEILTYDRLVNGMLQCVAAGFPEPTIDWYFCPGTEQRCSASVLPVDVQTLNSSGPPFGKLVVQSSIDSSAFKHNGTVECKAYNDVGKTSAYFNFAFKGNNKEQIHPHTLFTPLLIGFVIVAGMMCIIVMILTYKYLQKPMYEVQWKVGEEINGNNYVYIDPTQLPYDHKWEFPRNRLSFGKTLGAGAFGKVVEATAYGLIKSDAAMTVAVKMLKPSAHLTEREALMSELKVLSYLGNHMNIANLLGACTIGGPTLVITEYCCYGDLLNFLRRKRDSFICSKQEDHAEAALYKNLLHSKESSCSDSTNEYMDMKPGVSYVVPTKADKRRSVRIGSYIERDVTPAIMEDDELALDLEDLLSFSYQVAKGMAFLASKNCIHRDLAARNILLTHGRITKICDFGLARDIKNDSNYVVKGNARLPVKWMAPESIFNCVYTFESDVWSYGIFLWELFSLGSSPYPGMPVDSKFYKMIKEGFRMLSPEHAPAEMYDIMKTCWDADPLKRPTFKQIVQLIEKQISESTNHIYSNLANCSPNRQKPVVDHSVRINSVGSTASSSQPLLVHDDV

Row | Structure (SMILES) | pIC50
1 | Cn1cc(-c2cnc(Nc3cc(N)nc(C(F)F)n3)cc2OCC(F)(F)F)cn1 [Compound 132, 2-(difluoromethyl)-N4-(5-(1-methyl-1H-pyrazol-4-yl)-4-(2,2,2-trifluoroethoxy)pyridin-2-yl)pyrimidine-4,6-diamine] | > 8.00
2 | Nc1cc(Nc2cc(OC3CC3)c(-c3cnn(C4COC4)c3)cn2)nc(C(F)F)n1 [Compound 133, N4-(4-cyclopropoxy-5-(1-(oxetan-3-yl)-1H-pyrazol-4-yl)pyridin-2-yl)-2-(difluoromethyl)pyrimidine-4,6-diamine] | > 8.00
3 | Nc1cc(Nc2cc(NC3CC3)c(C(=O)NCc3cocn3)cn2)nc(C(F)F)n1 [Compound 134, 6-((6-amino-2-(difluoromethyl)pyrimidin-4-yl)amino)-4-(cyclopropylamino)-N-(oxazol-4-ylmethyl)nicotinamide] | > 8.00
4 | Nc1cc(Nc2cc(NC3CC3)c(C(=O)NCc3ncco3)cn2)nc(C(F)F)n1 [Compound 135, 6-((6-amino-2-(difluoromethyl)pyrimidin-4-yl)amino)-4-(cyclopropylamino)-N-(oxazol-2-ylmethyl)nicotinamide] | > 8.00
5 | CNCCn1cc(-c2cnc(Nc3cc(N)nc(C(F)F)n3)cc2OC2CC2)cn1 [Compound 136, N4-(4-cyclopropoxy-5-(1-(2-(methylamino)ethyl)-1H-pyrazol-4-yl)pyridin-2-yl)-2-(difluoromethyl)pyrimidine-4,6-diamine] | > 8.00
6 | COc1cc(Nc2cc(N)nc(C(F)F)n2)ncc1-c1cnn(CCN2CCC2)c1 [Compound 137, N4-(5-(1-(2-(azetidin-1-yl)ethyl)-1H-pyrazol-4-yl)-4-methoxypyridin-2-yl)-2-(difluoromethyl)pyrimidine-4,6-diamine] | 7.40 to 8.00
7 | COc1cc(Nc2cc(N)nc(C(F)F)n2)ncc1-c1cnn(C2CCN(C)C2)c1 (centres unmarked) [Compound 140, 2-(difluoromethyl)-N4-(4-methoxy-5-(1-(1-methylpyrrolidin-3-yl)-1H-pyrazol-4-yl)pyridin-2-yl)pyrimidine-4,6-diamine] | > 8.00
8 | CCOc1cc(Nc2cc(N)nc(C(F)F)n2)ncc1-c1cnn(C2CN(C)C2)c1 [Compound 141, 2-(difluoromethyl)-N4-(4-ethoxy-5-(1-(1-methylazetidin-3-yl)-1H-pyrazol-4-yl)pyridin-2-yl)pyrimidine-4,6-diamine] | > 8.00
9 | Cn1cc(-c2cnc(Nc3cc(N)nc(C(F)F)n3)cc2OC2CCCOC2)cn1 (centres unmarked) [Compound 142, 2-(difluoromethyl)-N4-(5-(1-methyl-1H-pyrazol-4-yl)-4-((tetrahydro-2H-pyran-3-yl)oxy)pyridin-2-yl)pyrimidine-4,6-diamine] | > 8.00
10 | Cn1cc(-c2cnc(Nc3cc(N)nc(C(F)F)n3)cc2OCC2CCCO2)cn1 (centres unmarked) [Compound 143, 2-(difluoromethyl)-N4-(5-(1-methyl-1H-pyrazol-4-yl)-4-((tetrahydrofuran-2-yl)methoxy)pyridin-2-yl)pyrimidine-4,6-diamine] | > 8.00
11 | Cn1cc(-c2cnc(Nc3cc(N)nc(C(F)F)n3)cc2OC[C@H]2C[C@H](O)C2)cn1 [Compound 144, (1r,3r)-3-(((2-((6-amino-2-(difluoromethyl)pyrimidin-4-yl)amino)-5-(1-methyl-1H-pyrazol-4-yl)pyridin-4-yl)oxy)methyl)cyclobutan-1-ol] | 7.40 to 8.00
12 | Cn1cc(-c2cnc(Nc3cc(N)nc(C(F)F)n3)cc2OCC2CC(O)C2)cn1 (centres unmarked) [Compound 145, 3-(((2-((6-amino-2-(difluoromethyl)pyrimidin-4-yl)amino)-5-(1-methyl-1H-pyrazol-4-yl)pyridin-4-yl)oxy)methyl)cyclobutan-1-ol] | 7.40 to 8.00
13 | COCCn1cc(-c2cnc(Nc3cc(N)nc(C(F)F)n3)cc2OC2CC2)cn1 [Compound 146, N4-(4-cyclopropoxy-5-(1-(2-methoxyethyl)-1H-pyrazol-4-yl)pyridin-2-yl)-2-(difluoromethyl)pyrimidine-4,6-diamine] | > 8.00
14 | CC(C)Nc1cc(Nc2cc(N)nc(C(F)F)n2)ncc1C(=O)NCc1cocn1 [Compound 147, 6-((6-amino-2-(difluoromethyl)pyrimidin-4-yl)amino)-4-(isopropylamino)-N-(oxazol-4-ylmethyl)nicotinamide] | > 8.00

Other lines, results leading:

Row | pIC50 | Structure (SMILES)
15 | > 8.00 | CC(C)Nc1cc(Nc2cc(N)nc(C(F)F)n2)ncc1C(=O)NCc1ncco1 [Compound 148, 6-((6-amino-2-(difluoromethyl)pyrimidin-4-yl)amino)-4-(isopropylamino)-N-(oxazol-2-ylmethyl)nicotinamide]
16 | < 7.40 | CCNc1cc(Nc2cc(N)nc(C(F)F)n2)ncc1C(=O)NC1CC2(CNC2)C1 [Compound 149, 6-((6-amino-2-(difluoromethyl)pyrimidin-4-yl)amino)-4-(ethylamino)-N-(2-azaspiro[3.3]heptan-6-yl)nicotinamide]
17 | > 8.00 | COc1cc(Nc2cc(N)nc(C(F)F)n2)ncc1-c1cnn(CC(C)N(C)C)c1 (centres unmarked) [Compound 150, 2-(difluoromethyl)-N4-(5-(1-(2-(dimethylamino)propyl)-1H-pyrazol-4-yl)-4-methoxypyridin-2-yl)pyrimidine-4,6-diamine]
18 | > 8.00 | CCNc1cc(Nc2cc(N)nc(C(F)F)n2)ncc1C(=O)NC12CC(CO)(C1)C2 [Compound 151, 6-((6-amino-2-(difluoromethyl)pyrimidin-4-yl)amino)-4-(ethylamino)-N-(3-(hydroxymethyl)bicyclo[1.1.1]pentan-1-yl)nicotinamide]
19 | > 8.00 | CCOc1cc(Nc2cc(N)nc(C(F)F)n2)ncc1-c1cnn(CC(C)(C)O)c1 [Compound 152, 1-(4-(6-((6-amino-2-(difluoromethyl)pyrimidin-4-yl)amino)-4-ethoxypyridin-3-yl)-1H-pyrazol-1-yl)-2-methylpropan-2-ol]
20 | > 8.00 | Nc1cc(Nc2cc(NC3CC3)c(C(=O)NCc3ccccn3)cn2)nc(C(F)F)n1 [Compound 153, 6-((6-amino-2-(difluoromethyl)pyrimidin-4-yl)amino)-4-(cyclopropylamino)-N-(pyridin-2-ylmethyl)nicotinamide]
21 | > 8.00 | Nc1cc(Nc2cc(OC(F)(F)F)c(-c3cnn(C4CC4)c3)cn2)nc(C(F)F)n1 [Compound 154, N4-(5-(1-cyclopropyl-1H-pyrazol-4-yl)-4-(trifluoromethoxy)pyridin-2-yl)-2-(difluoromethyl)pyrimidine-4,6-diamine]
22 | > 8.00 | CC(O)Cn1cc(-c2cnc(Nc3cc(N)nc(C(F)F)n3)cc2OC(F)F)cn1 (centres unmarked) [Compound 155, 1-(4-(6-((6-amino-2-(difluoromethyl)pyrimidin-4-yl)amino)-4-(difluoromethoxy)pyridin-3-yl)-1H-pyrazol-1-yl)propan-2-ol]
23 | > 8.00 | CC(C)Nc1cc(Nc2cc(N)nc(C(F)F)n2)ncc1C(=O)NCc1ccccn1 [Compound 158, 6-((6-amino-2-(difluoromethyl)pyrimidin-4-yl)amino)-4-(isopropylamino)-N-(pyridin-2-ylmethyl)nicotinamide]
24 | > 8.00 | C[C@@H](Oc1cc(Nc2cc(N)nc(C(F)F)n2)ncc1-c1cnn(C)c1)C(F)(F)F [Compound 163, (R)-2-(difluoromethyl)-N4-(5-(1-methyl-1H-pyrazol-4-yl)-4-((1,1,1-trifluoropropan-2-yl)oxy)pyridin-2-yl)pyrimidine-4,6-diamine]
25 | > 8.00 | Nc1cc(Nc2cc(OC3CC3)c(-c3cnn(CC4CCO4)c3)cn2)nc(C(F)F)n1 (centres unmarked) [Compound 166, N4-(4-cyclopropoxy-5-(1-(oxetan-2-ylmethyl)-1H-pyrazol-4-yl)pyridin-2-yl)-2-(difluoromethyl)pyrimidine-4,6-diamine]
26 | < 7.40 | Nc1cc(Nc2cc(OC3COC3)c(-c3cnn(C4CNC4)c3)cn2)nc(C(F)F)n1 [Compound 168, N4-(5-(1-(azetidin-3-yl)-1H-pyrazol-4-yl)-4-(oxetan-3-yloxy)pyridin-2-yl)-2-(difluoromethyl)pyrimidine-4,6-diamine formate]
27 | > 8.00 | CC(C)(N)Cn1cc(-c2cnc(Nc3cc(N)nc(C(F)F)n3)cc2OC2CC2)cn1 [Compound 169, N4-(5-(1-(2-amino-2-methylpropyl)-1H-pyrazol-4-yl)-4-cyclopropoxypyridin-2-yl)-2-(difluoromethyl)pyrimidine-4,6-diamine]
28 | > 8.00 | CNC(C)Cn1cc(-c2cnc(Nc3cc(N)nc(C(F)F)n3)cc2OC2CC2)cn1 (centres unmarked) [Compound 170, N4-(4-cyclopropoxy-5-(1-(2-(methylamino)propyl)-1H-pyrazol-4-yl)pyridin-2-yl)-2-(difluoromethyl)pyrimidine-4,6-diamine]
29 | > 8.00 | CN(C)CCn1cc(-c2cnc(Nc3cc(N)nc(C(F)F)n3)cc2OC2CC2)cn1 [Compound 171, N4-(4-cyclopropoxy-5-(1-(2-(dimethylamino)ethyl)-1H-pyrazol-4-yl)pyridin-2-yl)-2-(difluoromethyl)pyrimidine-4,6-diamine]
30 | 7.40 to 8.00 | Cn1cc(-c2cnc(Nc3cc(N)nc(C(F)F)n3)cc2OCC2CCCCO2)cn1 (centres unmarked) [Compound 172, 2-(difluoromethyl)-N4-(5-(1-methyl-1H-pyrazol-4-yl)-4-((tetrahydro-2H-pyran-2-yl)methoxy)pyridin-2-yl)pyrimidine-4,6-diamine]
31 | > 8.00 | CC(C)(O)Cn1cc(-c2cnc(Nc3cc(N)nc(C(F)F)n3)cc2OC2CC2)cn1 [Compound 173, 1-(4-(6-((6-amino-2-(difluoromethyl)pyrimidin-4-yl)amino)-4-cyclopropoxypyridin-3-yl)-1H-pyrazol-1-yl)-2-methylpropan-2-ol]
32 | > 8.00 | Nc1cc(Nc2cc(NC3CC3)c(C(=O)NC34CC(CO)(C3)C4)cn2)nc(C(F)F)n1 [Compound 174, 6-((6-amino-2-(difluoromethyl)pyrimidin-4-yl)amino)-4-(cyclopropylamino)-N-(3-(hydroxymethyl)bicyclo[1.1.1]pentan-1-yl)nicotinamide]
